System: Jurkat T cells
Test: mRNA sequencing of activated Jurkat T cells
Type: cell-based, human
Details: Jurkat T cells, P + I

SMILES: C=CC[C@@H]1/C=C(\C)C[C@H](C)C[C@H](OC)[C@H]2O[C@@](O)(C(=O)C(=O)N3CCCC[C@H]3C(=O)O[C@H](/C(C)=C/[C@@H]3CC[C@@H](O)[C@H](OC)C3)[C@H](C)[C@@H](O)CC1=O)[C@H](C)C[C@@H]2OC [FK506, Tacrolimus, reference compound]
- ABTB2 FPKM: 2.549 FPKM
- ACAP1 FPKM: 35.261 FPKM
- ACSF3 FPKM: 22.755 FPKM
- ADA FPKM: 74.531 FPKM
- ADAMTS17 FPKM: 0.843 FPKM
- ADCYAP1 FPKM: 3.646 FPKM
- ADORA2A FPKM: 0.998 FPKM
- AFF2 FPKM: 4.374 FPKM
- AGK FPKM: 14.029 FPKM
- ALDH1A2 FPKM: 7.041 FPKM
- ALOX5AP FPKM: 92.971 FPKM
- ANKEF1 FPKM: 3.081 FPKM
- ANO8 FPKM: 3.26 FPKM
- ANTXR2 FPKM: 53.159 FPKM
- APH1B FPKM: 5.12 FPKM
- APOBEC3B-AS1 FPKM: 13.251 FPKM
- APOBEC3F FPKM: 5.861 FPKM
- APOBEC3G FPKM: 8.803 FPKM
- APOL1 FPKM: 4.036 FPKM
- ARHGAP4 FPKM: 15.97 FPKM
- ARHGAP25 FPKM: 3.447 FPKM
- ARHGAP31 FPKM: 10.889 FPKM
- ARHGEF3 FPKM: 8.637 FPKM
- ARPP21 FPKM: 1.29 FPKM
- ASB13 FPKM: 2.277 FPKM
- ASNS FPKM: 20.436 FPKM
- ATHL1 FPKM: 4.597 FPKM
- ATP2A3 FPKM: 47.81 FPKM
- ATP6V0A4 FPKM: 21.385 FPKM
- ATP6V1B2 FPKM: 50.672 FPKM
- ATPAF1 FPKM: 11.764 FPKM
- AVPR2 FPKM: 1.21 FPKM
- B2M FPKM: 1155.981 FPKM
- BAHCC1 FPKM: 1 FPKM
- BCL2A1 FPKM: 21.118 FPKM
- BCL2L1 FPKM: 39.402 FPKM
- BCL3 FPKM: 14.57 FPKM
- BCL6 FPKM: 15.181 FPKM
- BCL7A FPKM: 12.185 FPKM
- BCL11B FPKM: 3.688 FPKM
- BEND6 FPKM: 1.416 FPKM
- BIN1 FPKM: 2.374 FPKM
- BIRC3 FPKM: 30.767 FPKM
- C10orf55 FPKM: 7.632 FPKM
- C11orf74 FPKM: 0.365 FPKM
- C21orf58 FPKM: 5.847 FPKM
- CABP1 FPKM: 1.201 FPKM
- CAMK2D FPKM: 5.855 FPKM
- CARHSP1 FPKM: 20.082 FPKM
- CBFA2T3 FPKM: 12.236 FPKM
- CBLB FPKM: 8.881 FPKM
- CBS FPKM: 3.935 FPKM
- CBX2 FPKM: 2.786 FPKM
- CCDC15 FPKM: 3.535 FPKM
- CCL3 FPKM: 0 FPKM
- CCL3L3 FPKM: 0 FPKM
- CCL20 FPKM: 0 FPKM
- CCND3 FPKM: 30.402 FPKM
- CCNE2 FPKM: 6.298 FPKM
- CD1B FPKM: 4.115 FPKM
- CD1E FPKM: 4.975 FPKM
- CD70 FPKM: 3.005 FPKM
- CD82 FPKM: 171.933 FPKM
- CD97 FPKM: 19.394 FPKM
- CD200 FPKM: 0 FPKM
- CD274 FPKM: 7.13 FPKM
- CDKN1A FPKM: 39.264 FPKM
- CDKN2D FPKM: 17.642 FPKM
- CECR1 FPKM: 5.304 FPKM
- CENPM FPKM: 13.201 FPKM
- CEP70 FPKM: 14.887 FPKM
- CERKL FPKM: 13.458 FPKM
- CFLAR FPKM: 3.438 FPKM
- CHEK2 FPKM: 8.907 FPKM
- CHPF2 FPKM: 36.42 FPKM
- CHPF FPKM: 9.759 FPKM
- CHRNA3 FPKM: 4.293 FPKM
- CHST12 FPKM: 13.527 FPKM
- CNN2 FPKM: 30.77 FPKM
- COL27A1 FPKM: 4.463 FPKM
- CPD FPKM: 23.208 FPKM
- CREB3L2 FPKM: 5.62 FPKM
- CREB5 FPKM: 0.577 FPKM
- CSF1 FPKM: 1.706 FPKM
- CSF2 FPKM: 0 FPKM
- CXCL8 FPKM: 0.937 FPKM
- CXCL11 FPKM: 0.695 FPKM
- CXCR4 FPKM: 38.979 FPKM
- CYTH1 FPKM: 33.17 FPKM
- DBP FPKM: 2.396 FPKM
- DCBLD2 FPKM: 13.786 FPKM
- DENND5A FPKM: 24.792 FPKM
- DNAJB5 FPKM: 19.238 FPKM
- DSTYK FPKM: 3.501 FPKM
- DTL FPKM: 5.862 FPKM
- DTX1 FPKM: 4.414 FPKM
- DUSP6 FPKM: 9.728 FPKM
- DUSP10 FPKM: 11.981 FPKM
- E2F7 FPKM: 4.531 FPKM
- ECE1 FPKM: 20.046 FPKM
- EFHD2 FPKM: 180.233 FPKM
- EGR1 FPKM: 218.444 FPKM
- EGR2 FPKM: 11.435 FPKM
- EHBP1L1 FPKM: 7.073 FPKM
- EMP1 FPKM: 4.613 FPKM
- ETS1 FPKM: 50.032 FPKM
- FADS2 FPKM: 67.903 FPKM
- FAM64A FPKM: 7.456 FPKM
- FAT1 FPKM: 13.036 FPKM
- FBLN2 FPKM: 3.348 FPKM
- FKBP5 FPKM: 8.687 FPKM
- FLI1 FPKM: 13.241 FPKM
- FOSL1 FPKM: 10.499 FPKM
- FOSL2 FPKM: 2.204 FPKM
- FXYD5 FPKM: 41.346 FPKM
- FYN FPKM: 16.523 FPKM
- GAD1 FPKM: 2.246 FPKM
- GFOD1 FPKM: 4.187 FPKM
- GFRA1 FPKM: 0.991 FPKM
- GKAP1 FPKM: 2.692 FPKM
- GLRB FPKM: 1.62 FPKM
- GLRX FPKM: 25.315 FPKM
- GNG4 FPKM: 5.365 FPKM
- GPC2 FPKM: 5.785 FPKM
- GPR17 FPKM: 0.258 FPKM
- GPR68 FPKM: 8.916 FPKM
- GSE1 FPKM: 17.37 FPKM
- GTDC1 FPKM: 4.629 FPKM
- GXYLT2 FPKM: 5.443 FPKM
- GZMB FPKM: 513.528 FPKM
- HCAR1 FPKM: 7.167 FPKM
- HIVEP3 FPKM: 20.041 FPKM
- HLA-A FPKM: 181.069 FPKM
- HLA-B FPKM: 116.079 FPKM
- HPGD FPKM: 6.064 FPKM
- IFIT3 FPKM: 6.495 FPKM
- IKZF2 FPKM: 8.561 FPKM
- IL2 FPKM: 0.287 FPKM
- IL4R FPKM: 9.842 FPKM
- IL10RA FPKM: 2.828 FPKM
- IL15 FPKM: 2.654 FPKM
- IL15RA FPKM: 5.979 FPKM
- IL21R FPKM: 2.244 FPKM
- IL21R-AS1 FPKM: 1.927 FPKM
- IL27RA FPKM: 10.817 FPKM
- IQCJ-SCHIP1 FPKM: 1.657 FPKM
- IQGAP2 FPKM: 4.857 FPKM
- IRF1 FPKM: 141.607 FPKM
- IRF2 FPKM: 34.99 FPKM
- IRF4 FPKM: 0.423 FPKM
- IRF7 FPKM: 21.167 FPKM
- ITGA4 FPKM: 39.099 FPKM
- ITGAL FPKM: 10.212 FPKM
- ITK FPKM: 58.558 FPKM
- JAK2 FPKM: 5.248 FPKM
- KCNK1 FPKM: 10.967 FPKM
- KIAA0101 FPKM: 21.727 FPKM
- KIAA0247 FPKM: 8.032 FPKM
- KIR3DX1 FPKM: 3.048 FPKM
- KLF10 FPKM: 25.627 FPKM
- KLF12 FPKM: 6.506 FPKM
- KREMEN1 FPKM: 3.122 FPKM
- LAIR1 FPKM: 8.298 FPKM
- LDLRAD4 FPKM: 6.21 FPKM
- LEF1-AS1 FPKM: 3.747 FPKM
- LEF1 FPKM: 74.102 FPKM
- LGMN FPKM: 1.42 FPKM
- LIF FPKM: 0.143 FPKM
- LIMS2 FPKM: 4.122 FPKM
- LINC00659 FPKM: 10.239 FPKM
- LINC01260 FPKM: 7.672 FPKM
- LMNA FPKM: 4.62 FPKM
- LMO1 FPKM: 1.094 FPKM
- LOC653712 FPKM: 4.163 FPKM
- LOC100506688 FPKM: 1.625 FPKM
- LOC101926963 FPKM: 4.541 FPKM
- LOC101927497 FPKM: 9.413 FPKM
- LPAR6 FPKM: 8.449 FPKM
- LRRC8C FPKM: 10.058 FPKM
- LRRC20 FPKM: 3.843 FPKM
- LTBP4 FPKM: 8.427 FPKM
- LUCATI FPKM: 12.516 FPKM
- MAFF FPKM: 16.977 FPKM
- MAGEA4 FPKM: 3.908 FPKM
- MAL FPKM: 2.664 FPKM
- MAMLD1 FPKM: 5.995 FPKM
- MAP3K7CL FPKM: 2.247 FPKM
- MAST4 FPKM: 3.498 FPKM
- MAZ FPKM: 112.102 FPKM
- MCM2 FPKM: 22.07 FPKM
- MCTP2 FPKM: 5.326 FPKM
- METRN FPKM: 1.779 FPKM
- MFAP4 FPKM: 0.663 FPKM
- MGAT4A FPKM: 8.906 FPKM
- MICAL2 FPKM: 1.763 FPKM
- MIR22HG FPKM: 9.248 FPKM
- MIR3652 FPKM: 547.182 FPKM
- MIR6775 FPKM: 19.643 FPKM
- MIR6821 FPKM: 13.626 FPKM
